We go through 18 compounds from patent US10233182B2, “Substituted spirocyclic inhibitors of autotaxin” (X-Rx, Inc., priority 2014, dated 2019).

The term IC50 denotes the concentration at which inhibition is half-maximal.

This assay addresses Autotaxin (Homo sapiens (Human), UniProt Q13822). In words: Autotaxin LPC Cascade Assay. Format: biochemical. To be noted: Autotaxin 5 nM, LPC 100 μM, choline oxidase/HRP/Ampliflu Red fluorescence read-out, 2% DMSO, RT; read-out: IC50 ATX Activity. The protocol:
Autotaxin LPC Cascade Assay:
HA130 and Test Compounds:
Prepare a 1 mM stock of HA130 and a 3 mM stock of each compound in 100% DMSO. Perform a 1:3 serial dilution in DMSO (transfer 5 l of compound to 10 l of DMSO). Add 240 l of buffer to generate a top working concentration of 40 µM (HA130) and 120 µM (test compound) in 4% DMSO.
Ampliflu Red—Prepare a stock of 5 mM from 100 mM in 100% DMSO. Further dilute to a working concentration of 400 μM in buffer (8% DMSO).
Together with compound this yields a 2% DMSO final concentration.
Choline Oxidase/HRP—0.8 U/mL CO and 8 U/mL HRP.
Incubate for 10 mins at RT. Add 5 µl of LPC and incubate for 1 hr on the plate shaker. Prepare the CO/HRP and AR immediately prior to use. Add 2.5 l of CO/HRP and follow with 2.5 l AR. Note order of addition, CO/HRP mix before AR. Read fluorescence intensity (ex/em: 530/590 nm) kinetically for 30 min at RT on the Tecan M1000.
For the compound `COc1ccc(N2C(=O)N(C)C(=O)C23CCN(C(=O)[C@H](NC(=O)c2cc(C4CC4)ccc2F)C(C)C)CC3)cc1` [Example 45, (R)-5-Cyclopropyl-2-fluoro-N-(1-(1-(4-methoxyphenyl)-3-methyl-2,4-dioxo-1,3,8-triazaspiro[4.5]decan-8-yl)-3-methyl-1-oxobutan-2-yl)benzamide], the 50% inhibitory concentration (IC50) is below 500 nM. For `CCc1cccc(C(=O)N[C@@H](C(=O)N2CCC3(CC2)C(=O)N(C)C(=O)N3c2ccccc2)C(C)C)c1` [Example 46, (R)-3-Ethyl-N-(3-methyl-1-(3-methyl-2,4-dioxo-1-phenyl-1,3,8-triazaspiro[4.5]decan-8-yl)-1-oxobutan-2-yl)benzamide] the value was 500 to 1000 nM. Regarding `CCc1cc(F)cc(C(=O)N[C@@H](C(=O)N2CCC3(CC2)C(=O)N(C)C(=O)N3c2ccccc2)C(C)C)c1` [Example 47, (R)-3-Ethyl-5-fluoro-N-(3-methyl-1-(3-methyl-2,4-dioxo-1-phenyl-1,3,8-triazaspiro[4.5]decan-8-yl)-1-oxobutan-2-yl)benzamide], the IC50 fell in the range of 500 to 1000 nM.

In the case of `CC(C)[C@@H](NC(=O)c1cc(Cl)cc(Cl)c1)C(=O)N1CCC2(CC1)C(=O)N(C)C(=O)N2c1ccccc1` [Example 48, (R)-3,5-Dichloro-N-(3-methyl-1-(3-methyl-2,4-dioxo-1-phenyl-1,3,8-triazaspiro[4.5]decan-8-yl)-1-oxobutan-2-yl)benzamide], the IC50 is below 500 nM.

Take `COc1ccc(N2C(=O)N(C)C(=O)C23CCN(C(=O)[C@H](NC(=O)c2cc(C4CC4)ccc2F)[C@@H](C)OC)CC3)cc1` [Example 49, 5-Cyclopropyl-2-fluoro-N-((2R,3R)-3-methoxy-1-(1-(4-methoxyphenyl)-3-methyl-2,4-dioxo-1,3,8-triazaspiro[4.5]decan-8-yl)-1-oxobutan-2-yl)benzamide]: the IC50 was below 500 nM. As for `CCc1ccc(F)c(C(=O)N[C@@H](C(=O)N2CCC3(CC2)C(=O)N(C)C(=O)N3c2ccc(OC)cc2)C(C)C)c1` [Example 50, (R)-5-Ethyl-2-fluoro-N-(1-(1-(4-methoxyphenyl)-3-methyl-2,4-dioxo-1,3,8-triazaspiro[4.5]decan-8-yl)-3-methyl-1-oxobutan-2-yl)benzamide], the figure is below 500 nM. As for `COc1ccc(N2C(=O)N(C)C(=O)C23CCN(C(=O)[C@H](NC(=O)c2cc(C(F)(F)F)ccc2F)C(C)C)CC3)cc1` [Example 51, (R)-2-Fluoro-N-(1-(1-(4-methoxyphenyl)-3-methyl-2,4-dioxo-1,3,8-triazaspiro[4.5]decan-8-yl)-3-methyl-1-oxobutan-2-yl)-5-(trifluoromethyl)benzamide], the figure is below 500 nM; as for `CC(C)[C@@H](NC(=O)c1cc(C(F)(F)F)ccc1F)C(=O)N1CCC2(CC1)C(=O)N(C)C(=O)N2c1ccc2[nH]ncc2c1` [Example 52, (R)—N-(1-(1-(1H-indazol-5-yl)-3-methyl-2,4-dioxo-1,3,8-triazaspiro[4.5]decan-8-yl)-3-methyl-1-oxobutan-2-yl)-2-fluoro-5-(trifluoromethyl)benzamide], below 500 nM. For `CC(C)[C@@H](NC(=O)c1cc(C(F)(F)F)ccc1F)C(=O)N1CCC2(CC1)C(=O)N(C)C(=O)N2c1ccc2cn[nH]c2c1` [Example 53, (R)—N-(1-(1-(1H-Indazol-6-yl)-3-methyl-2,4-dioxo-1,3,8-triazaspiro[4.5]decan-8-yl)-3-methyl-1-oxobutan-2-yl)-2-fluoro-5-(trifluoromethyl)benzamide] the value was at least 1000 nM; for `CC(C)[C@@H](NC(=O)c1cc(C2CC2)ccc1F)C(=O)N1CCC2(CC1)C(=O)N(C)C(=O)N2c1ccc2[nH]ncc2c1` [Example 54, (R)—N-(1-(1-(1H-Indazol-5-yl)-3-methyl-2,4-dioxo-1,3,8-triazaspiro[4.5]decan-8-yl)-3-methyl-1-oxobutan-2-yl)-5-cyclopropyl-2-fluorobenzamide], below 500 nM. On to `CCc1ccc(F)c(C(=O)N[C@@H](C(=O)N2CCC3(CC2)C(=O)N(C)C(=O)N3c2ccc3[nH]ncc3c2)C(C)C)c1` [Example 55, (R)—N-(1-(1-(1H-Indazol-5-yl)-3-methyl-2,4-dioxo-1,3,8-triazaspiro[4.5]decan-8-yl)-3-methyl-1-oxobutan-2-yl)-5-ethyl-2-fluorobenzamide], for which the IC50 was below 500 nM. As for `Cc1ccc(F)c(C(=O)N[C@@H](C(=O)N2CCC3(CC2)C(=O)N(C)C(=O)N3c2ccc3[nH]ncc3c2)C(C)C)c1` [Example 56, (R)—N-(1-(1-(1H-Indazol-5-yl)-3-methyl-2,4-dioxo-1,3,8-triazaspiro[4.5]decan-8-yl)-3-methyl-1-oxobutan-2-yl)-2-fluoro-5-methylbenzamide], the figure is below 500 nM; as for `CN1C(=O)N(c2ccc3[nH]ncc3c2)C2(CCN(C(=O)[C@H](NC(=O)c3cc(C(F)(F)F)ccc3F)C3CCCC3)CC2)C1=O` [Example 57, (R)—N-(2-(1-(1H-Indazol-5-yl)-3-methyl-2,4-dioxo-1,3,8-triazaspiro[4.5]decan-8-yl)-1-cyclopentyl-2-oxoethyl)-2-fluoro-5-(trifluoromethyl)benzamide], below 500 nM. As for `CN1C(=O)N(c2ccc3[nH]ncc3c2)C2(CCN(C(=O)[C@H](NC(=O)c3cc(C(F)(F)F)ccc3F)C3CCC3)CC2)C1=O` [Example 58, (R)—N-(2-(1-(1H-Indazol-5-yl)-3-methyl-2,4-dioxo-1,3,8-triazaspiro[4.5]decan-8-yl)-1-cyclobutyl-2-oxoethyl)-2-fluoro-5-(trifluoromethyl)benzamide], the figure is below 500 nM. For `CC(C)[C@@H](NC(=O)c1cccc(C(F)(F)F)c1)C(=O)N1CCC2(CC1)C(=O)N(C)C(=O)N2c1ccc2[nH]ncc2c1` [Example 59, (R)—N-(1-(1-(1H-Indazol-5-yl)-3-methyl-2,4-dioxo-1,3,8-triazaspiro[4.5]decan-8-yl)-3-methyl-1-oxobutan-2-yl)-3-(trifluoromethyl)benzamide] the value was below 500 nM. Regarding `CC(C)[C@@H](NC(=O)c1cc(Cl)cc(C(F)(F)F)c1)C(=O)N1CCC2(CC1)C(=O)N(C)C(=O)N2c1ccc2[nH]ncc2c1` [Example 60, (R)—N-(1-(1-(1H-Indazol-5-yl)-3-methyl-2,4-dioxo-1,3,8-triazaspiro[4.5]decan-8-yl)-3-methyl-1-oxobutan-2-yl)-3-chloro-5-(trifluoromethyl)benzamide], the IC50 is below 500 nM.

Consider `Cc1ccc(C(F)(F)F)cc1C(=O)N[C@@H](C(=O)N1CCC2(CC1)C(=O)N(C)C(=O)N2c1ccc2[nH]ncc2c1)C(C)C` [Example 61, (R)—N-(1-(1-(1H-Indazol-5-yl)-3-methyl-2,4-dioxo-1,3,8-triazaspiro[4.5]decan-8-yl)-3-methyl-1-oxobutan-2-yl)-2-methyl-5-(trifluoromethyl)benzamide], for which the IC50 is at least 1000 nM. For `CC(C)[C@@H](NC(=O)c1cc(OC(F)(F)F)ccc1F)C(=O)N1CCC2(CC1)C(=O)N(C)C(=O)N2c1ccc2[nH]ncc2c1` [Example 62, (R)—N-(1-(1-(1H-Indazol-5-yl)-3-methyl-2,4-dioxo-1,3,8-triazaspiro[4.5]decan-8-yl)-3-methyl-1-oxobutan-2-yl)-2-fluoro-5-(trifluoromethoxy)benzamide] the value was below 500 nM.
